Measured values published in patent US12404239B2, “Modulators of BCL6 as ligand directed degraders” (Celgene Corporation, priority 2022, dated 2025).

Biological target: T1, BCL6 (Homo sapiens, UniProt P41182)
T1 construct: HiBiT-tag knocked into endogenous BCL6 locus using CRISPR; endogenous in cells; host or cells: DHL-4_BCL6_HiBiT cells (CRISPR knock-in)
Assay: BCL6_HiBiT degradation assay (2 h)
Assay type: cell-based
Conditions: DHL-4_BCL6_HiBiT cells, read-out: YCon (% remaining maximal effect)
How it was run: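 DHL-4 cells carrying CRISPR HiBiT knock-in at endogenous BCL6, treated 2 h at 37 °C with 10-point 3-fold dilutions from 1-10 μM. BCL6 level read by Nano-Glo HiBiT lytic luminescence normalized to DMSO; four-parameter fit gives degradation EC50 and Yconstant (% remaining at maximal effect).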

SMILES | Percent BCL6 remaining at maximal degradation (Ycon)
Cn1nc(C2CCC(=O)NC2=O)c2ccc(NC3CCN(c4ncc(Cl)c(Nc5ccc6c(c5)CC(=O)N6CCO)n4)CC3)cc21 (centres unmarked) [Example 41, 3-[6-[[1-[5-chloro-4-[[1-(2-hydroxyethyl)-2-oxo-indolin-5-yl]amino]pyrimidin-2-yl]-4-piperidyl]amino]-1-methyl-indazol-3-yl]piperidine-2,6-dione] | 20 to 60%
CN1C(=O)Cc2cc(Nc3nc(N4CC[C@H](Nc5ccc6c(C7CCC(=O)NC7=O)nn(C)c6c5)[C@@H](F)C4)ncc3Cl)ccc21 (stereo partly drawn) [Example 42, 3-(6-(((3S,4S)-1-(5-chloro-4-((1-methyl-2-oxoindolin-5-yl)amino)pyrimidin-2-yl)-3-fluoropiperidin-4-yl)amino)-1-methyl-1H-indazol-3-yl)piperidine-2,6-dione] | 20 to 60%
CN1C(=O)Cc2cc(Nc3nc(N4CC[C@H](Nc5ccc6c(C7CCC(=O)NC7=O)nn(C)c6c5)[C@H](F)C4)ncc3Cl)ccc21 (stereo partly drawn) [Example 43, 3-(6-(((3R,4S)-1-(5-Chloro-4-((1-methyl-2-oxoindolin-5-yl)amino)pyrimidin-2-yl)-3-fluoropiperidin-4-yl)amino)-1-methyl-1H-indazol-3-yl)piperidine-2,6-dione] | > 60%
CN1C(=O)Cc2cc(Nc3nc(N4CC[C@@H](Nc5ccc6c(C7CCC(=O)NC7=O)nn(C)c6c5)[C@@H](F)C4)ncc3Cl)ccc21 (stereo partly drawn) [Example 44, 3-(6-(((3S,4R)-1-(5-chloro-4-((1-methyl-2-oxoindolin-5-yl)amino)pyrimidin-2-yl)-3-fluoropiperidin-4-yl)amino)-1-methyl-1H-indazol-3-yl)piperidine-2,6-dione] | > 60%
CN1C(=O)Cc2cc(Nc3nc(N4CC[C@@H](Nc5ccc6c(C7CCC(=O)NC7=O)nn(C)c6c5)[C@H](F)C4)ncc3Cl)ccc21 (stereo partly drawn) [Example 45, 3-(6-(((3R,4R)-1-(5-chloro-4-((1-methyl-2-oxoindolin-5-yl)amino)pyrimidin-2-yl)-3-fluoropiperidin-4-yl)amino)-1-methyl-1H-indazol-3-yl)piperidine-2,6-dione] | 20 to 60%
CN1C(=O)Cc2cc(Nc3nc(N4CC[C@@H](N(C)c5ccc6c(C7CCC(=O)NC7=O)nn(C)c6c5)[C@H](F)C4)ncc3Cl)ccc21 (stereo partly drawn) [Example 46, 3-[6-[[(3R,4R)-1-[5-Chloro-4-[(1-methyl-2-oxo-indolin-5-yl)amino]pyrimidin-2-yl]-3-fluoro-4-piperidyl]-methyl-amino]-1-methyl-indazol-3-yl]piperidine-2,6-dione] | > 60%
CC1CCN(c2ncc(Cl)c(Nc3ccc4c(c3)CC(=O)N4C)n2)CCC1Nc1ccc2c(C3CCC(=O)NC3=O)nn(C)c2c1 (centres unmarked) [Example 47, 3-(6-((1-(5-chloro-4-((1-methyl-2-oxoindolin-5-yl)amino)pyrimidin-2-yl)-5-methylazepan-4-yl)amino)-1-methyl-1H-indazol-3-yl)piperidine-2,6-dione] | > 60%
CN1C(=O)Cc2cc(Nc3nc(N4CCC(Nc5ccc6c(C7CCC(=O)NC7=O)nn(C)c6c5)CC4)ncc3Cl)ccc21 (centres unmarked) [Example 52, 3-(6-((1-(5-chloro-4-((1-methyl-2-oxoindolin-5-yl)amino)pyrimidin-2-yl)piperidin-4-yl)amino)-1-methyl-1H-indazol-3-yl)piperidine-2,6-dione] | 20 to 60%
CN1C(=O)Cc2cc(Nc3nc(N4CC[C@@H](Nc5ccc6c(C7CCC(=O)NC7=O)nn(C)c6n5)[C@H](O)C4)ncc3Cl)ccc21 (stereo partly drawn) [Example 55, 3-(6-(((3R,4R)-1-(5-chloro-4-((1-methyl-2-oxoindolin-5-yl)amino)pyrimidin-2-yl)-3-hydroxypiperidin-4-yl)amino)-1-methyl-1H-pyrazolo[3,4-b]pyridin-3-yl)piperidine-2,6-dione] | 20 to 60%
C[C@@H]1CN(c2ncc(Cl)c(Nc3ccc4c(c3)C(F)(F)C(=O)N4C)n2)CC[C@H]1Nc1ccc2c(C3CCC(=O)NC3=O)nn(C)c2c1 (stereo partly drawn) [Example 56, 3-(6-(((3R,4R)-1-(5-chloro-4-((3,3-difluoro-1-methyl-2-oxoindolin-5-yl)amino)pyrimidin-2-yl)-3-methylpiperidin-4-yl)amino)-1-methyl-1H-indazol-3-yl)piperidine-2,6-dione] | < 20%
CN1C(=O)Cc2cc(Nc3nc(N4CC[C@@H](Nc5ccc6c(C7CCC(=O)NC7=O)nn(C)c6c5)[C@@H](CO)C4)ncc3Cl)ccc21 (stereo partly drawn) [Example 57, 3-[6-[[(3S,4R)-1-[5-Chloro-4-[(1-methyl-2-oxo-indolin-5-yl)amino]pyrimidin-2-yl]-3-(hydroxymethyl)-4-piperidyl]amino]-1-methyl-indazol-3-yl]piperidine-2,6-dione] | > 60%
CN1C(=O)Cc2cc(Nc3nc(N4CC[C@H](Nc5ccc6c(C7CCC(=O)NC7=O)nn(C)c6c5)[C@H](CO)C4)ncc3Cl)ccc21 (stereo partly drawn) [Example 58, 3-(6-(((3R,4S)-1-(5-chloro-4-((1-methyl-2-oxoindolin-5-yl)amino)pyrimidin-2-yl)-3-(hydroxymethyl)piperidin-4-yl)amino)-1-methyl-1H-indazol-3-yl)piperidine-2,6-dione] | 20 to 60%
CN1C(=O)Cc2cc(Nc3nc(N(C)C4CCN(c5cnc6c(C7CCC(=O)NC7=O)nn(C)c6c5)CC4)ncc3Cl)ccc21 (centres unmarked) [Example 59, 3-(6-(4-((5-chloro-4-((1-methyl-2-oxoindolin-5-yl)amino)pyrimidin-2-yl)(methyl)amino)piperidin-1-yl)-1-methyl-1H-pyrazolo[4,3-b]pyridin-3-yl)piperidine-2,6-dione] | > 60%
CN1C(=O)Cc2cc(Nc3nc(N(C)C4CCN(c5cc6c(cn5)c(C5CCC(=O)NC5=O)nn6C)CC4)ncc3Cl)ccc21 (centres unmarked) [Example 60, 3-(6-(4-((5-chloro-4-((1-methyl-2-oxoindolin-5-yl)amino)pyrimidin-2-yl)(methyl)amino)piperidin-1-yl)-1-methyl-1H-pyrazolo[4,3-c]pyridin-3-yl)piperidine-2,6-dione] | > 60%
C[C@@H]1CN(c2ncc(Cl)c(Nc3ccc4c(c3)N(C)C(=O)C4)n2)CC[C@H]1Nc1ccc2c(C3CCC(=O)NC3=O)nn(C)c2c1 (stereo partly drawn) [Example 61, 3-(6-(((3R,4R)-1-(5-chloro-4-((1-methyl-2-oxoindolin-6-yl)amino)pyrimidin-2-yl)-3-methylpiperidin-4-yl)amino)-1-methyl-1H-indazol-3-yl)piperidine-2,6-dione] | < 20%
C[C@@H]1CN(c2ncc(Cl)c(Nc3ccc4c(c3)CC(=O)N4C)n2)CC[C@H]1Nc1ccc2c(C3CCC(=O)NC3=O)nn(C)c2n1 (stereo partly drawn) [Example 62, 3-(6-(((3R,4R)-1-(5-chloro-4-((1-methyl-2-oxoindolin-5-yl)amino)pyrimidin-2-yl)-3-methylpiperidin-4-yl)amino)-1-methyl-1H-pyrazolo[3,4-b]pyridin-3-yl)piperidine-2,6-dione] | < 20%
Cn1nc(C2CCC(=O)NC2=O)c2ccc(NC3CCN(c4ncc(Cl)c(Nc5ccc6c(c5)CC(=O)N6)n4)CC3)cc21 (centres unmarked) [Example 63, 3-(6-((1-(5-chloro-4-((2-oxoindolin-5-yl)amino)pyrimidin-2-yl)piperidin-4-yl)amino)-1-methyl-1H-indazol-3-yl)piperidine-2,6-dione] | > 60%
